# Patent US20040248887A1, “Inhibitors of cathepsin S” (IRM LLC, priority 2003, published 2004)
# Molecular target: Cathepsin S (Homo sapiens, UniProt P25774)
# Assay: Cathepsin S inhibition, fluorogenic peptide substrate kinetic assay
# Assay type: biochemical
# Conditions: Table II; Cathepsin S inhibition constant, pH5.5; read-out: Ki Cat. S
# Summary of the method: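 Ki values derive from apparent constants fitted to progress curves, corrected for competition with substrate via [S] and Km. Kinetics were monitored at 380 nm excitation/450 nm emission, after substrate addition (Ac-HPVK-ACC, 50 μM final) to start the reaction.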
# Chain of Cathepsin S (P25774 115-331, species assumed): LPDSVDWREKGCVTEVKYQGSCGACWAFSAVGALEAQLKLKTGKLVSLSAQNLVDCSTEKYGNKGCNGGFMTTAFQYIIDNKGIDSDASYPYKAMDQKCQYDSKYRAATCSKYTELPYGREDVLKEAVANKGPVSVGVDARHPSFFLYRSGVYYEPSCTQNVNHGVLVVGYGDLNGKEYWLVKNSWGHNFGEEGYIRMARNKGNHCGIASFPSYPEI
row,Ki,SMILES
1,< 100 nM,"C[C@@H](CNc1cccc(F)c1)NC(=O)[C@H](CC1CCCCC1)NC(=O)c1ccc(-c2cccc(F)c2)o1 [Compound 99, 5-(3-Fluoro-phenyl)-furan-2-carboxylic acid {2-cyclohexyl-1-(S)-[2-(3-fluoro-phenylamino)-1-(S)-methyl-ethylcarbamoyl]-ethyl}-amide]"
2,< 100 nM,"C[C@@H](CNc1ccc(OC(F)(F)F)cc1)NC(=O)[C@H](CC1CCCCC1)NC(=O)C1CCOC1 (mixture of isomers) [Compound 272, Tetrahydrofuran-3-(R,S)-carboxylic acid {2-cyclohexyl-1-(S)-[1-(S)-methyl-2-(4-trifluoromethoxy-phenylamino)-ethylcarbamoyl]-ethyl}-amide]"
3,< 1000 nM,"O=C(N[C@@H](Cc1ccc(Cl)cc1)C(=O)NCCN1CCc2cc(F)ccc21)c1ccc(-c2cccc(C(F)(F)F)c2)o1 [Compound 198, N-((S)-1-(2-(5-fluoroindolin-1-yl)ethylcarbamoyl)-2-(4-chlorophenyl)ethyl)-5-(3-(trifluoromethyl)phenyl)furan-2-carboxamide]"
4,< 100 nM,"C[C@@H](CNc1ccc2c(c1)OCO2)NC(=O)[C@H](CC1CCCCC1)NC(=O)c1ccc(-c2cccc(F)c2)o1 [Compound 85, 5-(3-Fluoro-phenyl)-furan-2-carboxylic acid {1-(S)-[2-(benzo[1,3]dioxol-5-ylamino)-1-(S)-methyl-ethylcarbamoyl]-2-cyclohexyl-ethyl}-amide]"
5,< 100 nM,"C[C@@H](CN1CCc2cc(F)ccc21)NC(=O)[C@H](CC1CCCCC1)NS(=O)(=O)c1csc(-c2cnco2)c1 [Compound 250, (S,S)-3-Cyclohexyl-N-[2-(5-fluoro-2,3-dihydro-indol-1-yl)-1-methyl-ethyl]-2-(5-oxazol-5-yl-thiophene-3-sulfonylamino)-propionamide]"
6,< 1000 nM,"Cc1cccc(C(=O)N[C@@H](Cc2cccc(Cl)c2)C(=O)NCCN2CCc3cc(F)ccc32)c1 [Compound 197, N-((S)-1-(2-(5-fluoroindolin-1-yl)ethylcarbamoyl)-2-(3-chlorophenyl)ethyl)-3-methylbenzamide]"
7,< 100 nM,"C[C@@H](CN1CCc2cc(F)ccc21)NC(=O)[C@H](CC1CCCCC1)NC(=O)OCc1ccccc1 [Compound 174, {2-Cyclohexyl-1-(S)-[2-(5-fluoro-2,3-dihydro-indol-1-yl)-1-(S)-methyl-ethylcarbamoyl]-ethyl}-carbamic acid benzyl ester]"
8,< 100 nM,"Cc1cccc(S(=O)(=O)N[C@@H](CC(C)(C)C)C(=O)N[C@@H](CC(=O)O)CN2CCc3cc(F)ccc32)c1 [Compound 262, (S,S)-3-[4,4-Dimethyl-2-(toluene-3-sulfonylamino)-pentanoylamino]-4-(5-fluoro-2,3-dihydro-indol-1-yl)-butyric acid]"
9,< 100 nM,"C[C@@H](CNc1ccc(OC(F)F)cc1)NC(=O)[C@H](CC1CCCCC1)NC(=O)c1ccc(-c2cccc(F)c2)o1 [Compound 84, 5-(3-Fluoro-phenyl)-furan-2-carboxylic acid {2-cyclohexyl-1-(S)-[2-(4-difluoromethoxy-phenylamino)-1-(S)-methyl-ethylcarbamoyl]-ethyl}-amide]"
10,< 1000 nM,"COc1ccc(N[C@H]2CCCC[C@H]2NC(=O)[C@H](CC(C)C)NC(=O)c2cccc(C)c2)cc1 (mixture of isomers) [Compound 33, N-{1-(S)-[cis-2-(4-Methoxy-phenylamino)-cyclohexylcarbamoyl]-3-methyl-butyl}-3-methyl-benzamide]"
11,< 1000 nM,"CC(C(=O)N[C@@H](CC1CCCCC1)C(=O)NCCN1CCc2cc(F)ccc21)c1ccc(F)cc1 (stereo partly drawn) [Compound 62, N-{2-cyclohexyl-1-(S)-[2-(5-fluoro-2,3-dihydro-indol-1-yl)-ethylcarbamoyl]-ethyl}-2-(4-fluoro-phenyl)-propionamide]"
12,< 100 nM,"O=C(NC(C(=O)NC(CO)CN1CCc2cc(F)ccc21)c1ccc(Cl)cc1Cl)c1ccco1 [Compound 209, N-(S)-((3-(5-fluoroindolin-1-yl)-1-hydroxypropan-2-(R)-ylcarbamoyl)(2,4-dichlorophenyl)methyl)furan-2-carboxamide]"
